Each structure is given as a SMILES string. Entries after “also recorded” stand apart in the source; their conditions may differ.

Data set [1] can be described thus: Cytotoxicity in Huh7 cells (ATPLite kit). Type of data set: cell-based. To be noted: human. As for the experimental part:
The cytotoxicity of tested compositions comprising the prodrug was evaluated concurrently in the same cell line Huh7 using an ATPLite kit (Perkin-Elmer, Boston, USA) in accordance with the manufacturer's instruction. The cell suspension in complete culture medium (DMEM 1×, Cellgro; cat. #10-013-CV) was transferred into 96-well plates with black walls and transparent bottoms (50 μl/well) with a final density of 7500 cells per well. Eighteen hours after planting the cells, serial compound dilutions (50 μl/well) were added. The plate with cells was incubated for 4 days at 37° C. in a humidified 5% CO2 atmosphere. The cells were then twice washed with PBS (200 μl/well) and lysed by adding a lytic buffer (50 μl/well); all reagents were taken from the ATPLite kit. Following a 5-minute stirring on a shaker, a substrate was added (50 μl/well). After an additional 5-minute incubation, the plate was kept for 10 minutes in the dark, and luminescence in the wells was measured using the multifunctional reader Victor^3 V 1420 (Perkin Elmer). The values of CC50 for tested compounds were measured from a cytotoxicity curve plotted using the GraphPad Prizm software.
For orientation: Cellular ATP, detected with luciferase, serves as a proxy for viable cell number.

A short description of data set [2]: Stability in human liver S9 fraction. Type of data set: in vitro ADME. As for the experimental part:
Proteins were deposited on ice for 15 min. The samples were then centrifuged for 10 min at 3000 rpm, and the supernatant (150 μl) was sampled for analysis.
Tolbutamide (Fluka) was used as the internal standard.

A short description of data set [3]: Pharmacokinetics of triphosphate PSI-7409 in rat liver after peroral administration. Format: in vivo, Sprague Dawley rats. To be noted: comparison of Cmax and AUC24h in rat liver. The procedure:
The tested composition was administered at a dose of 50 mg/kg. To this end, compositions were prepared with a concentration of prodrug 1.1 or Sovaldi® of 5.0 mg/ml in a 0.5% solution of hydroxypropyl methylcellulose (HPMC), to which 5% ethanol was added, as follows: to a weighed portion of the prodrug of formula 1.1 or Sovaldi®, an appropriate amount of HPMC was added, and the mixture was triturated dry in a mortar, whereafter a proper quantity of 5% ethanol in distilled water was gradually added portionwise, and the mixture was carefully stirred to obtain a suspension suitable for intragastric administration.
The study was carried out on Sprague Dawley rats. The rats were divided into groups of 6 based on selected time points (1, 2, 4, 6, 8, 10, 12, 16, and 24 h). The rats were weighed, and the volume of compositions comprising the prodrug of formula 1.1 or Sovaldi® was calculated for each animal at a rate of 10 ml/kg. Compositions comprising the prodrug of formula 1.1 or Sovaldi® were administered intragastrically through a feeding tube. […]
Samples were analyzed using an HPLC-MS/MS technique, wherein the HPLC system Agilent 1290 Infinity II was combined with the AB Sciex QTrap 5500 mass spectrometer. […] PSI-7409 and H027-4261 were recorded in MRM mode with ion transitions of 499/159 and 410/150, respectively. […]

In the case of `C[C@H](N[P@](=O)(OC[C@H]1O[C@@H](n2ccc(=O)[nH]c2=O)[C@](C)(F)[C@@H]1O)Oc1ccccc1)C(=O)OC1CCC1` [Prodrug 1.1, cyclobutyl (S)-2-{(S)-[(2R,3R,4R,5R)-5-(3,4-dihydro-2,4-dioxo-2H-pyrimidin-1-yl)-3-hydroxy-4-methyl-4-fluoro-tetrahydro-furan-2-ylmethoxy]-phenoxy-phosphorylamino}-propanoate], the CC90 at 4 days in data set [1] (Huh7, 10% FBS) was > 100 µM. Besides, the CC50 (as a rule, the concentration that lowers cell viability or growth by half) at 4 days in data set [1] (Huh7, ATPLite, 4 days) was > 100 µM. Moreover, in data set [2] (pH 7.4, human liver S9 fraction 1 mg/ml protein, 37° C., 1 μM, read-out: T1/2 Human S9 (converted)), the half-life at 1 μM was 3 min. The “metabolic rate in human liver microsomal S9 fraction relative to Sovaldi (faster)” value in data set [2] (ratio of T1/2 in human S9) is listed as 11 times. For the same molecule, the “effectiveness of liver metabolism into triphosphate PSI-7409 relative to Sovaldi” value in data set [3] is “almost twice more effective; also recorded: almost two times more effectively”.

For the origin of these results see patent US20190054109A1, “An antiviral composition and a method for application thereof” (ALLA CHEM, LLC, priority 2017, published 2019).
